Measured values taken from patent publication EP1190034B1, “BLEACH ACTIVATOR BASED ON INULIN” (Coöperatie Cosun U.A., priority 1999, dated 2001).

Experiments:
[1] = Solubility in water; assay type: physicochemical
[2] = Bleach activator test procedure (peracetic acid liberated, iodometric titration); settings: hydrogen peroxide, 30 °C, pH 11.6, 4 minutes, correction factor 1.10
Protocol: The bleach activator property is determined on the basis of the quantity of peracetic acid that can be liberated from the product. […] The best characteristics are found when the acylation is carried out in water at controlled pH (Table 1).
Mix the following solutions: • 15 ml 0.6% hydrogen peroxide solution • 10 ml saturated sodium pyrophosphate solution • 10 ml 0.05% EDTA solution. • Make up to 100 ml with demineralised water and heat to 30 °C. • Add the heated mixture to an accurately weighed amount (75 - 90 mg) of bleach activator in a 600 ml glass beaker. • Adjust the pH to 11.6 with 0.1 M NaOH solution. • Precisely 4 minutes after the first addition add 30 ml 0.1% catalase solution. • Adjust the pH to 10.5 with 0.5 M sulphuric acid solution and cool the solution to 0 - 3 °C. • Precisely 6 minutes after the first addition add 15 ml 100% acetic acid solution and 15 ml 10% potassium iodide solution. • Titrate the liberated iodine against a 0.1 M thiosulphate solution. The mol% peracetic acid liberated from the bleach activator can be calculated from the quantity of thiosulphate solution required, 2 mmol thiosulphate corresponding to 1 mmol peracetic acid formed. The determinations were corrected for the loss of peracetic acid during the measurement. The correction factor for this loss is 1.10.

## CC(=O)N(CCN(C(C)=O)C(C)=O)C(C)=O [TAED, tetraacetylethylenediamine]
[1]
  Solubility (%): 0.1%
[2]; 100 x number of mols of peracetate formed / total number of mols of acetyl groups in product
  Peracetate formed (mol%): 45 mol%
[2]
  mol peracetate/ kg product: 7.9 mol peracetate/ kg product
